Test results from patent US20200054671A1, “TREATMENT OF ANXIETY DISORDER AND AUGMENTATION OF ANTI-ANXIETY INTERVENTIONS BY ADMINISTRATION OF NOBLE GAS CONTAINING MIXTURES” (NOBILIS THERAPEUTICS, INC., priority 2016, published 2020).
Values joined by “and” are separate entries in the source; they are usually repeats but may differ in a detail not shown here. Equal entries are not always repeated.

Experiments:
[1] = system: patients with panic disorder; experiment: Clinical Global Impression Scale, severity of the disease subscale (CGI-S); assay type: in vivo, human
Protocol: (§1) This investigator-initiated study was performed under a prospective clinical trial protocol approved by the Institute of Mental Health and Addictology, which is accredited by the Ministry of Health of the Russian Federation to conduct clinical trials (#57689). Study conduct was in compliance with all ethical standards and good clinical practice. Ninety outpatients with a diagnosis of “panic disorder» (F41.0) according to ICD-10 were enrolled through the Institute of Mental Health and Addictology. Five patients dropped out of the study due to minor side effects, predominantly lightheadedness and headaches, and 4 patients dropped out of the study for unspecified reasons. As the intention to treat analysis was not utilized due to the open label design of the study, 81 patients with PD (49 women and 32 men), mean age was 35.2 years (range […]) were studied. Patients were randomized into 2 groups: with “pure” PD (group 1) and “comorbid” PD, when it was co-diagnosed with other mental illnesses (group 2). All patients with isolated PD (Group 1, n=42) received monotherapy with xenon at the aforementioned schedule, while the majority of patients (94.9%) with PD and comorbid conditions, which were predominantly depression (group 2, n=39), in addition to xenon administration continued treatment for comorbid psychiatric disorders, which mainly consisted of antidepressants (SSRIs and SNRIs). In these patients, the reason for xenon treatment was the increase in the frequency and severity of panic attacks despite ongoing treatment with stable pharmacotherapy of at least 3 to 6 months' duration.
(§2) Administration of xenon was performed through inhalation of xenon-oxygen mixtures that were escalated from 15%/85% to 30%/70% with titration increments of 5% per session. Each patient in the study underwent between 6 and 7 treatments with xenon-oxygen mixture. The first three sessions were carried out daily and from session 4 onward—every other day. The selected dosing regime and the composition of the gas mixtures were based on the historical evidence of safety of subanesthetic use of xenon in imaging.
(§3) Medical grade xenon (“medksenon»®, 99.9999%, manufacturer: Atommedcenter, Moscow, Russia) and medical grade oxygen in separate containers were admixed. Mixing and administration of gases in preset concentration and volume was accomplished with the use of the medical device MAGi-AMTS1, which enables the operator to adjust the concentration of xenon in the gas mixture, and which contains the electronic flow meter with a software module that allows for such adjustments. Administration of xenon-oxygen mixture to the patient was carried out via a face mask. Patients were asked to slowly inhale, holding breath for 5 to 10 seconds; exhale into the loop and after 35-40 seconds exhale outside the contour and breath in the new portion of gas mixture. Xenon inhalation lasted from 2.5 to 4 minutes, and the xenon consumption was capped at 3.0 liters per procedure. The patients were assessed subjectively by the provider, while the vital signs (pulse, blood pressure, oxygen saturation) were continuously monitored.
(§4) Patients were evaluated after each xenon inhalation and at 30 and 180 days after completion of treatment. To this end, we employed clinical psychopathological and clinical catamnestic methods, and psychometric scales that are widely used internationally to assess the treatment of mental disorders. Scale Assessment, Zung Self-Rating Anxiety Scale (SAS) was performed prior to starting therapy (V1), and at 1 and 6 months after treatment. According to this scale, SAS index of less than 45 points corresponds to the normal value, 45-59—to mild-to-moderate degree of anxiety, 60-74—to high degree of anxiety, more than 75—to an extremely high-level of anxiety. […]

[2] = system: patients with panic disorder; experiment: Hospital Anxiety and Depression Scale, depression subscale (HADS_D); assay type: in vivo, human; settings: for HADS_D: patients with “clinically severe depression”: end of the active phase of treatment
Protocol: as §1, §2
(§5) Medical grade xenon (“medksenon»®, 99.9999%, manufacturer: Atommedcenter, Moscow, Russia) and medical grade oxygen in separate containers were admixed. […] The patients were assessed subjectively by the provider, while the vital signs (pulse, blood pressure, oxygen saturation) were continuously monitored.
Patients were evaluated after each xenon inhalation and at 30 and 180 days after completion of treatment. […]

[3] = system: patients with panic disorder; experiment: Tolerability of xenon therapy in the clinical trial; assay type: in vivo, human; settings: mainly headache and dizziness
Protocol: This investigator-initiated study was performed under a prospective clinical trial protocol approved by the Institute of Mental Health and Addictology, which is accredited by the Ministry of Health of the Russian Federation to conduct clinical trials (#57689). Study conduct was in compliance with all ethical standards and good clinical practice. Ninety outpatients with a diagnosis of “panic disorder» (F41.0) according to ICD-10 were enrolled through the Institute of Mental Health and Addictology. Five patients dropped out of the study due to minor side effects, predominantly lightheadedness and headaches, and 4 patients dropped out of the study for unspecified reasons. As the intention to treat analysis was not utilized due to the open label design of the study, 81 patients with PD (49 women and 32 men), mean age was 35.2 years (range […]) were studied. Patients were randomized into 2 groups: with “pure” PD (group 1) and “comorbid” PD, when it was co-diagnosed with other mental illnesses (group 2). […]
as §5

[4] = system: patients with panic disorder; experiment: Frequency of major and minor panic attacks; assay type: in vivo, human; settings: for The frequency of major panic attacks 6 months after treatment, Mean / The frequency of major panic attacks 6 months after treatment, Median / Changes Minor Panic Attacs_V6_V1, Mean / Changes Minor Panic Attacs_V6_V1, Median / Changes_Major Panic Attacs_V6_V1, Mean / Changes_Major Panic Attacs_V6_V1, Median: per month; for Changes Minor Panic Attacs_V6_V1, Mean / Changes Minor Panic Attacs_V6_V1, Median / Changes_Major Panic Attacs_V6_V1, Mean / Changes_Major Panic Attacs_V6_V1, Median: vs before treatment
Protocol: as §1, §2, §3, §4

NMDA receptor = NMDA receptor (Homo sapiens, UniProt Q05586); settings: glycine site of the NMDA receptor; cited from earlier work
[5] = system: patients with panic disorder; experiment: Zung Self-Rating Anxiety Scale (SAS); assay type: in vivo, human
Protocol: as §1, §2, §3, §4

[6] = «Pure PD» (n = 42), total given 39

[Xe] [xenon]
CGI-S, V2: Moderately expressed disease, share of patients ([1]; Comorbid PD (n = 39), total 42): 2.4% | CGI-S, V2: Serious disease, share of patients ([1]; Comorbid PD (n = 39), total 42): 4.8% | CGI-S, V2: Significantly expressed disease, share of patients ([1]; Comorbid PD (n = 39), total 42): 92.9% | CGI-S, V3: Significantly expressed disease, share of patients ([1]; Comorbid PD (n = 39), total 42): 88.1% | CGI-S, V4: Moderately expressed disease, share of patients ([1]; Comorbid PD (n = 39), total 42): 52.4% | CGI-S, V4: Significantly expressed disease, share of patients ([1]; Comorbid PD (n = 39), total 42): .0% | CGI-S, V4: Weakly expressed disease, share of patients ([1]; Comorbid PD (n = 39), total 42): 47.6% | CGI-S, V5: Borderline state, share of patients ([1]; Comorbid PD (n = 39), total 42): 14.3% | CGI-S, V5: Moderately expressed disease, share of patients ([1]; Comorbid PD (n = 39), total 42): .0% | CGI-S, V5: Significantly expressed disease, share of patients ([1]; Comorbid PD (n = 39), total 42): .0% | CGI-S, V5: Weakly expressed disease, share of patients ([1]; Comorbid PD (n = 39), total 42): 85.7% | CGI-S, V6: Normal state, share of patients ([1]; Comorbid PD (n = 39), total 42): 11.9% | CGI-S, V6: Weakly expressed disease, share of patients ([1]; Comorbid PD (n = 39), total 42): .0% | CGI-S, V3: Moderately expressed disease, share of patients ([1]; Comorbid PD (n = 39), total 42, after the third procedure): 11.9% | CGI-S, V6: Borderline state, share of patients ([1]; Comorbid PD (n = 39), total 42, upon completion of xenon treatments): 88.1% | CGI-S, V2: Moderately expressed disease, share of patients ([1]; Total (n = 81)): 24.7% | CGI-S, V2: Serious disease, share of patients ([1]; Total (n = 81)): 2.5% | CGI-S, V2: Significantly expressed disease, share of patients ([1]; Total (n = 81)): 72.8% | CGI-S, V3: Moderately expressed disease, share of patients ([1]; Total (n = 81)): 29.6% | CGI-S, V3: Significantly expressed disease, share of patients ([1]; Total (n = 81)): 70.4% | CGI-S, V4: Moderately expressed disease, share of patients ([1]; Total (n = 81)): 51.9% | CGI-S, V4: Significantly expressed disease, share of patients ([1]; Total (n = 81)): 23.5% | CGI-S, V4: Weakly expressed disease, share of patients ([1]; Total (n = 81)): 24.7% | CGI-S, V5: Borderline state, share of patients ([1]; Total (n = 81)): 7.4% | CGI-S, V5: Moderately expressed disease, share of patients ([1]; Total (n = 81)): 45.7% | CGI-S, V5: Significantly expressed disease, share of patients ([1]; Total (n = 81)): 1.2% | CGI-S, V5: Weakly expressed disease, share of patients ([1]; Total (n = 81)): 45.7% | CGI-S, V6: Borderline state, share of patients ([1]; Total (n = 81)): 85.2% | CGI-S, V6: Normal state, share of patients ([1]; Total (n = 81)): 6.2% | CGI-S, V6: Weakly expressed disease, share of patients ([1]; Total (n = 81)): 8.6% | CGI-S, V2: Moderately expressed disease, share of patients [1, 6]: 48.7% | CGI-S, V2: Serious disease, share of patients [1, 6]: .0% | CGI-S, V2: Significantly expressed disease, share of patients [1, 6]: 51.3% | CGI-S, V3: Significantly expressed disease, share of patients [1, 6]: 51.3% | CGI-S, V4: Moderately expressed disease, share of patients [1, 6]: 51.3% | CGI-S, V4: Significantly expressed disease, share of patients [1, 6]: 48.7% | CGI-S, V4: Weakly expressed disease, share of patients [1, 6]: .0% | CGI-S, V5: Borderline state, share of patients [1, 6]: .0% | CGI-S, V5: Moderately expressed disease, share of patients [1, 6]: 94.9% | CGI-S, V5: Significantly expressed disease, share of patients [1, 6]: 2.6% | CGI-S, V5: Weakly expressed disease, share of patients [1, 6]: 2.6% | CGI-S, V6: Normal state, share of patients [1, 6]: .0% | CGI-S, V6: Weakly expressed disease, share of patients [1, 6]: 17.9% | CGI-S, V3: Moderately expressed disease, share of patients ([1]; «Pure PD» (n = 42), total given 39, after the third procedure): 48.7% | CGI-S, V6: Borderline state, share of patients ([1]; «Pure PD» (n = 42), total given 39, upon completion of xenon treatments): 82.1% | HADS_D: patients in whom “clinically severe depression” was absent ([2]; group 1, after 3 xenon treatments): 90.5% | HADS_D: patients with “clinically severe depression” ([2]; group 1): 2.4% | HADS_D: patients in whom “clinically severe depression” was present ([2]; group 2, after 3 xenon treatments): 82.1% | HADS_D: patients with “clinically severe depression” ([2]; group 2): 46.2% | patients dropping out from the study due to side effects ([3]; 5 patients): 5.8% | tolerability of xenon therapy ([3]; side effects, were rare): generally well tolerated | The frequency of minor panic attacks 6 months after treatment, Mean ([4]; Total (n = 81)): .6 times/month | The frequency of minor panic attacks 6 months after treatment, Median ([4]; Total (n = 81)): .0 times/month | The frequency of major panic attacks 6 months after treatment, Mean ([4]; Total (n = 81)): .0 | The frequency of major panic attacks 6 months after treatment, Median ([4]; Total (n = 81)): .0 | Changes Minor Panic Attacs_V6_V1, Mean ([4]; Total (n = 81)): −42.7 | Changes Minor Panic Attacs_V6_V1, Median ([4]; Total (n = 81)): −55.0 | Changes_Major Panic Attacs_V6_V1, Mean ([4]; Total (n = 81)): −9.6 | Changes_Major Panic Attacs_V6_V1, Median ([4]; Total (n = 81)): −7.0 | “major” panic attacks 6 months after treatment ([4]; both groups): absent | panic attacks after the 6th treatment ([4]; conclusion from HADS_T, CGI-I, CGI-S): complete cessation of panic attacks | The frequency of minor panic attacks 6 months after treatment, Mean ([4]; «Comorbid PD» (n = 39)): 1 times/month and 1.0 times/month | The frequency of minor panic attacks 6 months after treatment, Median ([4]; «Comorbid PD» (n = 39)): .0 times/month | The frequency of major panic attacks 6 months after treatment, Mean ([4]; «Comorbid PD» (n = 39)): .0 | The frequency of major panic attacks 6 months after treatment, Median ([4]; «Comorbid PD» (n = 39)): .0 | Changes Minor Panic Attacs_V6_V1, Mean ([4]; «Comorbid PD» (n = 39)): −40.7 | Changes Minor Panic Attacs_V6_V1, Median ([4]; «Comorbid PD» (n = 39)): −40.0 | Changes_Major Panic Attacs_V6_V1, Mean ([4]; «Comorbid PD» (n = 39)): −11.7 | Changes_Major Panic Attacs_V6_V1, Median ([4]; «Comorbid PD» (n = 39)): −12.0 | The frequency of minor panic attacks 6 months after treatment, Median ([4]; «Pure PD» (n = 42)): .0 times/month | The frequency of major panic attacks 6 months after treatment, Mean ([4]; «Pure PD» (n = 42)): .0 | The frequency of major panic attacks 6 months after treatment, Median ([4]; «Pure PD» (n = 42)): .0 | Changes Minor Panic Attacs_V6_V1, Mean ([4]; «Pure PD» (n = 42)): −44.5 | Changes Minor Panic Attacs_V6_V1, Median ([4]; «Pure PD» (n = 42)): −55.0 | Changes_Major Panic Attacs_V6_V1, Mean ([4]; «Pure PD» (n = 42)): −7.7 | Changes_Major Panic Attacs_V6_V1, Median ([4]; «Pure PD» (n = 42)): −3.0 | mechanism of inhibition of NMDA receptor activity (NMDA receptor): competitive inhibition of the co-agonist glycine | Zung SAS after 1 month − V1, mean paired difference ([5]; Group 1 (n=42)): −36.131 | Zung SAS after 6 months − V1, mean paired difference ([5]; Group 1 (n=42)): −38.214 | SAS total score ([5]; Group 1, one month after treatment): 36.5 points | SAS total score ([5]; Group 1, study follow up (6 months)): 34.5 | Zung SAS after 1 month − V1, mean paired difference ([5]; Group 2 (n=39)): −17.308 | Zung SAS after 6 months − V1, mean paired difference ([5]; Group 2 (n=39)): −16.154 | SAS total score ([5]; Group 2, one month after treatment): 46.8 points | SAS total score ([5]; Group 2, study follow up (6 months)): 47.9
